Where two headings read alike, the source gives them in different places.
How the values were obtained:
PRMT5/MEP50 complex [1] = target: T1, PRMT5/MEP50 complex (Homo sapiens, UniProt O14744); test: PRMT5:MEP50 FlashPlate Assay (histone H4 peptide substrate, plus and minus MTA); format: biochemical
T1 construct: purchased Reaction Biology Corporation
Description: The PRMT5 inhibitory activity of compounds of the present invention was determined using either a PRMT5:MEP50 FlashPlate Assay (Reaction Biology Corporation) or a PRMT5:MEP50 HotSpot Assay (Reaction Biology Corporation).

HCT116 parental cells = test: Proliferation assay (CellTiter-Glo, 10 days) in HCT116 parental cells; format: cell-based; settings: CellTiter-Glo after 10 days of treatment
Description: (§1) Control samples were analyzed in parallel.
Briefly, on Day 0, 250 HCT116 parental or HCT116 homozygous MTAP knockout cell were seeded in 96 well plates in McCoy's 5A supplemented with […] fetal bovine serum and pen/strep and the cells were incubated overnight at 37° C. plus 5% CO2.
The following day, cells were treated with DMSO vehicle control or a dose response of PRMT5 inhibitors and incubated at 37 C plus 5% CO2 for five days. On Day 6, the cells were trypsinized and split 1:10 into new 96-well plates with fresh medium containing the same concentration of PRMT5 inhibitor and incubated for an additional 5 days at 37° C. plus 5% CO^2.
On Day 11, the viability of the cells was measured using a CTG assay kit (CellTiter-Glo; Promega cat.no G7573) in accordance with the manufacturer's instructions. The IC50 values for each compound after 10 days of treatment were calculated using GraphPad PRISM software.

PRMT5/MEP50 complex [2] = target: T1, PRMT5/MEP50 complex; test: PRMT5:MEP50 HotSpot Assay (full-length histone H2A substrate, plus and minus MTA); format: biochemical
How it was run: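 Radiometric HotSpot format using recombinant full-length histone H2A as substrate, run with and without MTA. Reactions were stopped and spotted onto filter paper. Tritiated H2A was quantified by scintillation counting.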

[3] = system: PRMT5-dependent Symmetric Di-methyl Arginine signal in HCT116 homozygous MTAP Knockout cells; test: SYM11 In-Cell Western in HCT116 homozygous MTAP knockout cells; format: cell-based; settings: 4 days of treatment, SYM11/DRAQ5 ratio as percent of DMSO control, read-out: In-cell-Western (SYM11) IC50 (nM) HCT116 MTAP_KO
How it was run: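 HCT116 cells with CRISPR homozygous MTAP knockout, alongside parental cells, treated four days with PRMT5 inhibitor dose response at 37° C., 5% CO2 in McCoy's 5A with 10% FBS.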

[4] = system: HCT116 homozygous MTAP knockout cells; test: Proliferation assay (CellTiter-Glo, 10 days) in HCT116 homozygous MTAP knockout cells; format: cell-based; settings: CellTiter-Glo after 10 days of treatment, read-out: Proliferation IC50 (nM) HCT116 MTAP_KO
How it was run: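 MTAP-null HCT116 clone made by CRISPR/Cas9 knockout of both alleles, tested beside parental cells. Cells dosed the day after seeding, split 1:10 on day 6 into fresh medium with the same compound level, and read on day 11 by CellTiter-Glo. IC50 taken after 10 days of exposure.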

[5] = system: PRMT5-dependent Symmetric Di-methyl Arginine signal in HCT116 parental cells; test: SYM11 In-Cell Western in HCT116 parental cells; format: cell-based; settings: HCT116 parental cells, 4 days of treatment, SYM11/DRAQ5 ratio as percent of DMSO control, read-out: In-cell-Western (SYM11) IC50 (nM) HCT216 parental
Description: as §1
Briefly, on Day 0, 2,000 HCT116 parental or HCT116 homozygous MTAP knockout cells were seeded in 96 well plates in McCoy's 5A supplemented with 10% fetal bovine serum and pen/strep and the cells were incubated overnight at 37° C. plus 5% CO2. The following day, cells were treated with DMSO vehicle control or a dose response of PRMT5 inhibitors, and incubated at 37° C. plus 5% CO^2 for four days.
After 4 days of treatment, the cells were fixed by adding 50 μl of 4% paraformaldehyde solution to each well and the cells were incubated for 20 min at room temperature. The paraformaldehyde solution was removed, 150 μl of ice-cold methanol was added and the plate was placed −20° C. for 10 minutes. The methanol was removed, 150 μl of Odyssey Blocking buffer+0.05% Tween20 was added and the plate was incubated at room temperature with shaking for one hour.
The primary SYM11 antibody solution was removed by aspiration and the wells were washed three consecutive times with phosphate buffered saline containing 0.1% Tween-20 (PBST).
The secondary antibody solution was removed by aspiration and the wells were washed three consecutive times with PBST.
The SYM11 signal and the DRAQ5 signal were quantified using a Li-Cor Odyssey machine reading at […], respectively. The SYM11/DRAQ5 ratio was used to calculate the inhibition of Symmetric Dimethyl Arginine as percent of DMSO control.

[6] = in the absence of MTA, read-out: IC50
[7] = IC50 + 2 μM MTA, in the presence of 2 μM MTA
[8] = read-out: IC50 + 2 μM MTA, in the presence of 2 μM MTA

T1 sequence (O14744 2-637 limits assumed): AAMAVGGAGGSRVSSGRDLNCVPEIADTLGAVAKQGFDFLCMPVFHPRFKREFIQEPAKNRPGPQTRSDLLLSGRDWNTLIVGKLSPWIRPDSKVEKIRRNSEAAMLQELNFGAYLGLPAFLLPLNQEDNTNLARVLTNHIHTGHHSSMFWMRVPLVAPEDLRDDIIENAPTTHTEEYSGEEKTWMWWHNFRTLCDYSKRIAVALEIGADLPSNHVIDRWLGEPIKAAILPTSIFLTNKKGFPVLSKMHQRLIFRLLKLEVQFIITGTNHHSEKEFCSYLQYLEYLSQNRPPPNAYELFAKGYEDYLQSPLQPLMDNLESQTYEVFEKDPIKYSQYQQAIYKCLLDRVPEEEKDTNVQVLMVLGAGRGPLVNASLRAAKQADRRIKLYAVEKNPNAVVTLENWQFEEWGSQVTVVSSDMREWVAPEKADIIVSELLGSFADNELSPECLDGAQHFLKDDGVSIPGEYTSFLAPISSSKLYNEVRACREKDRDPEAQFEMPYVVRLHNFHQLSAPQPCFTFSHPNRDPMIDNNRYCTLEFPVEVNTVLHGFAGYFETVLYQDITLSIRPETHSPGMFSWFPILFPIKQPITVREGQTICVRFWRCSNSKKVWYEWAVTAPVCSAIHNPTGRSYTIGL
T1 sequence (Q9BQA1 2-342 partner limits assumed): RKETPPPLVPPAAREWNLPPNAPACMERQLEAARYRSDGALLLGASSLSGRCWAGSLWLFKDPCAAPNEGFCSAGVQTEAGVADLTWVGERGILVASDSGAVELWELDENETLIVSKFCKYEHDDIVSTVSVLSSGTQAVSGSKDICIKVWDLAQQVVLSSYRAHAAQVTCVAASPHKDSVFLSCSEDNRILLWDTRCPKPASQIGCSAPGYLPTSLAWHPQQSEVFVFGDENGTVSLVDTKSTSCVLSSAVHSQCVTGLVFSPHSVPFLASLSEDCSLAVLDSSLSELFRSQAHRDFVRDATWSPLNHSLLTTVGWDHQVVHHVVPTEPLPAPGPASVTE

| Compound | IC50 (PRMT5/MEP50 complex [1]; [6]) | IC50 (PRMT5/MEP50 complex [2]; [7]) | IC50 ([4]; Homo sapiens, HCT-116, 240 h) | IC50 (HCT116 parental cells) | IC50 [3] | IC50 [5] | other results |
| --- | --- | --- | --- | --- | --- | --- | --- |
| CCc1cncc(-c2ccc3c(=O)[nH]nc(CN)c3c2)c1 [Example 3-13, 4-(aminomethyl)-6-(5-ethylpyridin-3-yl)-phthalazin-1(2H)-one] | 420 nM |  |  |  |  |  |  |
| CCOc1cc(-c2cnn(C)c2-c2c(F)c(C)c3ncc(Cl)cc3c2C#N)cc2c(CN)n[nH]c(=O)c12 (single isomer, unassigned) [Example 16-111, (P)-6-(4-(4-(aminomethyl)-8-ethoxy-1-oxo-1,2-dihydrophthalazin-6-yl)-1-methyl-1H-pyrazol-5-yl)-3-chloro-7-fluoro-8-methylquinoline-5-carbonitrile] |  | 451 nM | 21 nM |  |  |  | IC50 (HCT116 parental cells; Homo sapiens, HCT-116, 240 h): 57 nM; IC50 ([3]; Homo sapiens, HCT-116, 96 h): 344 nM; IC50 ([5]; Homo sapiens, HCT-116, 96 h): 686 nM |
| 4-(aminomethyl)-6-(5-ethoxypyrazolo[1,5-a]pyridin-3-yl)phthalazin-1(2H)-one [Example 4-158] | 113 nM |  |  | 1740 nM | > 10000 nM | > 10000 nM | IC50 (PRMT5/MEP50 complex [2]; [8]): 1460 nM; IC50 (PRMT5/MEP50 complex [1]; [8]): 2.8 nM; IC50 [4]: 2200 nM |
| Cc1nc2cncc(-c3ccc4c(=O)[nH]nc(CN)c4c3)c2o1 [Example 4-110, 4-(aminomethyl)-6-(2-methyloxazolo[4,5-c]pyridin-7-yl)phthalazin-1(2H)-one] | > 100000 nM |  |  |  |  |  |  |
| CC(=O)Nc1cc(-c2cnn(C)c2-c2sc3ccccc3c2C#N)cc2c(CN)n[nH]c(=O)c12 [Example 15-8, N-(1-(aminomethyl)-7-(5-(3-cyano-benzo[b]thiophen-2-yl)-1-methyl-1H-pyrazol-4-yl)-4-oxo-3,4-dihydrophthal-azin-5-yl)acetamide] |  | 109 nM | 96 nM |  |  |  | IC50 (HCT116 parental cells; Homo sapiens, HCT-116, 240 h): 155 nM; IC50 ([3]; Homo sapiens, HCT-116, 96 h): 96 nM; IC50 ([5]; Homo sapiens, HCT-116, 96 h): 720 nM |
| Cn1ncc(-c2ccc3c(=O)[nH]nc(CN)c3c2)c1-c1c(F)cc2ccccc2c1C#N (single isomer, unassigned) [Example 16-2] |  | 111 nM | 224 nM | 5920 nM | 73 nM | > 1000 nM |  |
| Cc1c(F)c(-c2c(-c3cc(Cl)c4c(=O)[nH]nc(CN)c4c3)cnn2C)c(C#N)c2cc(Cl)cnc12 (single isomer, unassigned) [Example 16-110, (M)-6-(4-(4-(aminomethyl)-8-chloro-1-oxo-1,2-dihydrophthalazin-6-yl)-1-methyl-1H-pyrazol-5-yl)-3-chloro-7-fluoro-8-methylquinoline-5-carbonitrile] |  | 19 nM | 16 nM |  |  |  | IC50 (HCT116 parental cells; Homo sapiens, HCT-116, 240 h): 423 nM; IC50 ([3]; Homo sapiens, HCT-116, 96 h): 6 nM; IC50 ([5]; Homo sapiens, HCT-116, 96 h): 176 nM |
| Cc1c(F)c(-c2c(-c3ccc4c(=O)[nH]nc(CN)c4c3)cnn2C)c(C#N)c2ccccc12 (single isomer, unassigned) [Example 16-13, (P)-2-[4-[4-(aminomethyl)-1-oxo-2H-phthalazin-6-yl]-2-methyl-pyrazol-3-yl]-3-fluoro-4-methyl-naphthalene-1-carbonitrile] |  | 237 nM |  | 770 nM | 232 nM | > 1000 nM | IC50 [4]: 211 nM |
| Cc1c(F)c(-c2c(-c3ccc4c(=O)[nH]nc(CN)c4c3)cnn2C)c(C#N)c2ccccc12 (single isomer, unassigned) [Example 16-14, (M)-2-[4-[4-(aminomethyl)-1-oxo-2H-phthalazin-6-yl]-2-methyl-pyrazol-3-yl]-3-fluoro-4-methyl-naphthalene-1-carbonitrile] |  | 12.3 nM |  | 4400 nM | 3 nM | 378 nM | IC50 [4]: 8 nM |
| Cc1cccc(-c2c(-c3ccc4c(=O)[nH]nc(CN)c4c3)cnn2C)c1 [Example 4-94, 4-(aminomethyl)-6-(1-methyl-5-(m-tolyl)-1H-pyrazol-4-yl)phthalazin-1(2H)-one] | 33 nM |  |  |  |  |  |  |
| COc1cccc(-c2c(-c3ccc4c(=O)[nH]nc(CN)c4c3)cnn2C)c1 [Example 4-93, 4-(aminomethyl)-6-(5-(3-methoxyphenyl)-1-methyl-1H-pyrazol-4-yl)phthalazin-1(2H)-one] | 35 nM |  |  |  |  |  |  |

— patent US20240208912A1 (Mirati Therapeutics, Inc., priority 2021, published 2024)
